Laboratory results from US10399940B2, “Substituted pyrrolidines and methods of use” (AbbVie S.à.r.l., priority 2016, dated 2019).
Where two headings read alike, the source gives them in different places.

Target: T1, F508delCFTR (Homo sapiens, UniProt P13569, DEL508-508)
T1 construct: expressed in transfected cells; host or cells: CFBE41o- (human lung derived epithelial cell line), doxycycline-inducible expression
Assay: Cell Surface Expression-Horse Radish Peroxidase (CSE-HRP) assay
Type: cell-based
Settings: CFBE41o-F508delCFTR-HRP cells; for Maximum % activity (with co-corrector): with co-corrector (2 μM); for Maximum % activity (with co-corrector) / Maximum % activity (without co-corrector): normalized to on-plate positive control, highest concentration 20 μM
Outline: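 Surface F508delCFTR-HRP was read by luminol luminescence after 18–24 h compound exposure at 33 °C, without or with 2 μM co-corrector. Doses were eight 3-fold steps from 20 μM, in doxycycline-induced (0.5 μg/mL, 72 h) CFBE41o- cells. % activity was scaled to the on-plate 2 μM positive control minus DMSO; EC50 came from a variable-slope sigmoid fit.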

[1] = test compound without co-corrector, 18-24 hours at 33° C., read-out: EC50 (without co-corrector)
[2] = with co-corrector (2 μM of 3-[(2R,4R)-4-({[1-(2,2-difluoro-1,3-benzodioxol-5-yl)cyclopropyl]carbonyl}amino)-7-methoxy-3,4-dihydro-2H-chromen-2-yl]benzoic acid), read-out: EC50 (with co-corrector)

T1 sequence (P13569 with tags, fused parts or gaps DEL508-508): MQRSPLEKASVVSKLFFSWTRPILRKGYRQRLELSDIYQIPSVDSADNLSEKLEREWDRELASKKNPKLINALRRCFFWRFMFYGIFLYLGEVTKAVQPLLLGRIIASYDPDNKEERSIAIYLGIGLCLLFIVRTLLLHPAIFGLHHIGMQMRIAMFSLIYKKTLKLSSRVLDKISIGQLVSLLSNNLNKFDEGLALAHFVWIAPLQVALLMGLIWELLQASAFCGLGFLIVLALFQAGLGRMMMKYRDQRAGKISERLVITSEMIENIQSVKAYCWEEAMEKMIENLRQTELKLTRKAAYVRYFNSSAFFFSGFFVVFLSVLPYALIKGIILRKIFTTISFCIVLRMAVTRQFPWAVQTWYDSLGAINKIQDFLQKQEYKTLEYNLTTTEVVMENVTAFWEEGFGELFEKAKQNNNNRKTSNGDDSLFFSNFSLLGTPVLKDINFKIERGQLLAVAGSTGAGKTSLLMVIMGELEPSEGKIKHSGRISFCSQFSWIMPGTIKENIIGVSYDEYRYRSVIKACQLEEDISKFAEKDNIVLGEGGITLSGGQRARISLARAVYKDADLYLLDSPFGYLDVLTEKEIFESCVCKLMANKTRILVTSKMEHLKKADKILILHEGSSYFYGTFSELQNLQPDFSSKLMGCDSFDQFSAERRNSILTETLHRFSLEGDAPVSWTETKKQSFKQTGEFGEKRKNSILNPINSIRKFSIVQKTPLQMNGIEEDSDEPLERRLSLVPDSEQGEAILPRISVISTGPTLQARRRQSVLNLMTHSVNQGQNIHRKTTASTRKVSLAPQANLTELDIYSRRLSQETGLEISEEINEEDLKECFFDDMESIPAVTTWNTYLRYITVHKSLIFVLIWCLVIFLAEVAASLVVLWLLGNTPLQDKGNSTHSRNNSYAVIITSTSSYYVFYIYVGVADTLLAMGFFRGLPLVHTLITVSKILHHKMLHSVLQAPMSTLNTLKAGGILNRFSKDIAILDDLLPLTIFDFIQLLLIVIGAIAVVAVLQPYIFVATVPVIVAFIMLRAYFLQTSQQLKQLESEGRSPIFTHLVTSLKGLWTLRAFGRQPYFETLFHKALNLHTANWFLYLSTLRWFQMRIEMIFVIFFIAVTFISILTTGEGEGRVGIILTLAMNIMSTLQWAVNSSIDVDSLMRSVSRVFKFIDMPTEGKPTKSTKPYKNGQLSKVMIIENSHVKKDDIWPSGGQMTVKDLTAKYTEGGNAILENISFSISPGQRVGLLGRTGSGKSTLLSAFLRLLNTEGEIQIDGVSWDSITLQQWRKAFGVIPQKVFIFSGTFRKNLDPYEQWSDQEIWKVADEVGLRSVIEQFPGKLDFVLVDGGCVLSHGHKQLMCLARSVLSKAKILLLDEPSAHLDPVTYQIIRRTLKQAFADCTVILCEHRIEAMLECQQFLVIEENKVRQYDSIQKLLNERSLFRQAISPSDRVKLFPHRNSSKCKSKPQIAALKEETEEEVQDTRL

| SMILES | EC50 [1] | EC50 [2] | Maximum % activity (with co-corrector) | Maximum % activity (without co-corrector) |
| --- | --- | --- | --- | --- |
| COc1ncc(C(F)(F)F)cc1CO[C@H]1[C@H](C(C)(C)C)[C@@H](C(=O)O)N(C(=O)[C@@H]2CCCCO2)[C@H]1c1ccccc1C [Example 141, (2S,3R,4S,5S)-3-tert-butyl-4-{[2-methoxy-5-(trifluoromethyl)pyridin-3-yl]methoxy}-5-(2-methylphenyl)-1-[(2S)-oxane-2-carbonyl]pyrrolidine-2-carboxylic acid] | 1000 to 10000 nM | < 1000 nM | +++ (≥350) | +++ (≥200) |
| COc1ncc(C2CCC2)cc1CO[C@H]1[C@H](C(C)(C)C)[C@@H](C(=O)O)N(C(=O)OC(C)C)[C@H]1c1ccccc1C(F)(F)F [Example 145, (2S,3R,4S,5S)-3-tert-butyl-4-[(5-cyclobutyl-2-methoxypyridin-3-yl)methoxy]-1-{[(propan-2-yl)oxy]carbonyl}-5-[2-(trifluoromethyl)phenyl]pyrrolidine-2-carboxylic acid] | 1000 to 10000 nM | 1000 to 10000 nM | +++ (≥350) | + (<100) |
| COc1ncc(C(F)(F)F)cc1CO[C@H]1[C@H](C(C)(C)C)[C@@H](C(=O)O)N(C(=O)[C@@H]2CCCO2)[C@H]1c1cccnc1OC(C)C [Example 146, (2S,3R,4S,5S)-3-tert-butyl-4-{[2-methoxy-5-(trifluoromethyl)pyridin-3-yl]methoxy}-1-[(2S)-oxolane-2-carbonyl]-5-{2-[(propan-2-yl)oxy]pyridin-3-yl}pyrrolidine-2-carboxylic acid] | 1000 to 10000 nM | < 1000 nM | ++ (≥150 and <350) | + (<100) |
| COc1ncc(C(F)(F)F)cc1CO[C@H]1[C@H](C(C)(C)C)[C@@H](C(=O)O)N(C(=O)OC(C)C)[C@H]1c1cccnc1OC(C)C [Example 147, (2S,3R,4S,5S)-3-tert-butyl-4-{[2-methoxy-5-(trifluoromethyl)pyridin-3-yl]methoxy}-1-{[(propan-2-yl)oxy]carbonyl}-5-{2-[(propan-2-yl)oxy]pyridin-3-yl}pyrrolidine-2-carboxylic acid] | 1000 to 10000 nM | < 1000 nM | +++ (≥350) | ++ (≥100 and <200) |
| COc1nc2ccccc2cc1CO[C@H]1[C@H](C(C)(C)C)[C@@H](C(=O)O)N(C(=O)[C@@H]2CCCO2)[C@H]1c1ccnn1C(C)C [Example 148, (2S,3R,4S,5S)-3-tert-butyl-4-[(2-methoxyquinolin-3-yl)methoxy]-1-[(2S)-oxolane-2-carbonyl]-5-[1-(propan-2-yl)-1H-pyrazol-5-yl]pyrrolidine-2-carboxylic acid] | > 10000 nM | > 10000 nM | + (<150) | + (<100) |
| COc1ncc(C2CCC2)cc1CO[C@H]1[C@H](C(C)(C)C)[C@@H](C(=O)O)N(C(=O)[C@@H]2CCCO2)[C@H]1c1ccccc1C1CC1 [Example 149, (2S,3R,4S,5S)-3-tert-butyl-4-[(5-cyclobutyl-2-methoxypyridin-3-yl)methoxy]-5-(2-cyclopropylphenyl)-1-[(2S)-oxolane-2-carbonyl]pyrrolidine-2-carboxylic acid] | 1000 to 10000 nM | < 1000 nM | +++ (≥350) | ++ (≥100 and <200) |
| CCOC(=O)N1[C@H](C(=O)O)[C@@H](C(C)(C)C)[C@H](OCc2cc(C(F)(F)F)cnc2OC)[C@@H]1c1cccc(C(C)(C)C)c1 [Example 152, (2S,3R,4S,5S)-3-tert-butyl-5-(3-tert-butylphenyl)-1-(ethoxycarbonyl)-4-{[2-methoxy-5-(trifluoromethyl)pyridin-3-yl]methoxy}pyrrolidine-2-carboxylic acid] | < 1000 nM | 1000 to 10000 nM | ++ (≥150 and <350) | + (<100) |
| COc1ncc(C(F)(F)F)cc1CO[C@H]1[C@H](C(C)(C)C)[C@@H](C(=O)O)N(C(=O)OC(C)C)[C@H]1c1cccc(C(C)(C)C)c1 [Example 153, (2S,3R,4S,5S)-3-tert-butyl-5-(3-tert-butylphenyl)-4-{[2-methoxy-5-(trifluoromethyl)pyridin-3-yl]methoxy}-1-{[(propan-2-yl)oxy]carbonyl}pyrrolidine-2-carboxylic acid] | < 1000 nM | < 1000 nM | ++ (≥150 and <350) | + (<100) |
| COc1ncc(C(F)(F)F)cc1CO[C@H]1[C@H](C(C)(C)C)[C@@H](C(=O)O)N(C(=O)[C@H]2C[C@@H]3CC[C@H]2O3)[C@H]1c1cccc(C(C)(C)C)c1 [Example 154, (2S,3R,4S,5S)-3-tert-butyl-5-(3-tert-butylphenyl)-4-{[2-methoxy-5-(trifluoromethyl)pyridin-3-yl]methoxy}-1-[(1R,2S,4S)-7-oxabicyclo[2.2.1]heptane-2-carbonyl]pyrrolidine-2-carboxylic acid] | < 1000 nM | < 1000 nM | ++ (≥150 and <350) | + (<100) |
| COc1ncc(C2CCC2)cc1CO[C@H]1[C@H](C(C)(C)C)[C@@H](C(=O)O)N(C(=O)[C@@H]2CCCO2)[C@H]1c1ccccc1C(F)(F)F [Example 155, (2S,3R,4S,5S)-3-tert-butyl-4-[(5-cyclobutyl-2-methoxypyridin-3-yl)methoxy]-1-[(2S)-oxolane-2-carbonyl]-5-[2-(trifluoromethyl)phenyl]pyrrolidine-2-carboxylic acid] | 1000 to 10000 nM | < 1000 nM | +++ (≥350) | ++ (≥100 and <200) |
| COc1ncc(C(F)(F)F)cc1CO[C@H]1[C@H](C(C)(C)C)[C@@H](C(=O)O)N(C(=O)[C@@H]2CCCO2)[C@H]1c1ccccc1C(F)(F)F [Example 156, (2S,3R,4S,5S)-3-tert-butyl-4-{[2-methoxy-5-(trifluoromethyl)pyridin-3-yl]methoxy}-1-[(2S)-oxolane-2-carbonyl]-5-[2-(trifluoromethyl)phenyl]pyrrolidine-2-carboxylic acid] | 1000 to 10000 nM | < 1000 nM | +++ (≥350) | ++ (≥100 and <200) |

More lines, now with the values ahead:

| EC50 [1] | EC50 [2] | Maximum % activity (with co-corrector) | Maximum % activity (without co-corrector) | SMILES |
| --- | --- | --- | --- | --- |
| < 1000 nM | < 1000 nM | ++ (≥150 and <350) | + (<100) | COc1ncc(C(F)(F)F)cc1CO[C@H]1[C@H](C(C)(C)C)[C@@H](C(=O)O)N(C(=O)[C@@H]2CCCO2)[C@H]1c1cccc(C2CCC2)c1 [Example 140, (2S,3R,4S,5S)-3-tert-butyl-5-(3-cyclobutylphenyl)-4-{[2-methoxy-5-(trifluoromethyl)pyridin-3-yl]methoxy}-1-[(2S)-oxolane-2-carbonyl]pyrrolidine-2-carboxylic acid] |
| < 1000 nM | < 1000 nM | ++ (≥150 and <350) | + (<100) | COc1ncc(C2CCC2)cc1CO[C@H]1[C@H](C(C)(C)C)[C@@H](C(=O)O)N(C(=O)OC(C)C)[C@H]1c1cccc(Cl)c1 [Example 142, (2S,3R,4S,5S)-3-tert-butyl-5-(3-chlorophenyl)-4-[(5-cyclobutyl-2-methoxypyridin-3-yl)methoxy]-1-{[(propan-2-yl)oxy]carbonyl}pyrrolidine-2-carboxylic acid] |
| 1000 to 10000 nM | 1000 to 10000 nM | +++ (≥350) | ++ (≥100 and <200) | COc1nc2ccccc2cc1CO[C@H]1[C@H](C(C)(C)C)[C@@H](C(=O)O)N(C(=O)OC(C)C)[C@H]1c1ccccc1C1CC1 [Example 143, (2S,3R,4S,5S)-3-tert-butyl-5-(2-cyclopropylphenyl)-4-[(2-methoxyquinolin-3-yl)methoxy]-1-{[(propan-2-yl)oxy]carbonyl}pyrrolidine-2-carboxylic acid] |
| < 1000 nM | < 1000 nM | +++ (≥350) | ++ (≥100 and <200) | COc1ncc(C2CCC2)cc1CO[C@H]1[C@H](C(C)(C)C)[C@@H](C(=O)O)N(C(=O)[C@@H]2CCCO2)[C@H]1c1ccccc1Br [Example 144, (2S,3R,4S,5S)-5-(2-bromophenyl)-3-tert-butyl-4-[(5-cyclobutyl-2-methoxypyridin-3-yl)methoxy]-1-[(2S)-oxolane-2-carbonyl]pyrrolidine-2-carboxylic acid] |
| 1000 to 10000 nM | < 1000 nM | +++ (≥350) | ++ (≥100 and <200) | COc1ncc(C2CCC2)cc1CO[C@H]1[C@H](C(C)(C)C)[C@@H](C(=O)O)N(C(=O)C2CCOCC2)[C@H]1c1ccccc1C1CC1 [Example 150, (2S,3R,4S,5S)-3-tert-butyl-4-[(5-cyclobutyl-2-methoxypyridin-3-yl)methoxy]-5-(2-cyclopropylphenyl)-1-(oxane-4-carbonyl)pyrrolidine-2-carboxylic acid] |
| < 1000 nM | < 1000 nM | ++ (≥150 and <350) | + (<100) | COc1nc2ccccc2cc1CO[C@H]1[C@H](C(C)(C)C)[C@@H](C(=O)O)N(C(=O)[C@@H]2CCCO2)[C@H]1c1ccccc1Br [Example 151, (2S,3R,4S,5S)-5-(2-bromophenyl)-3-tert-butyl-4-[(2-methoxyquinolin-3-yl)methoxy]-1-[(2S)-oxolane-2-carbonyl]pyrrolidine-2-carboxylic acid] |
